Results as given in the Kinase Knowledgebase extract (Sharma et al. 2016).

Biological target: PIK3CA (human) (UniProt P42336)
Experiment: Cell-Based Assay
Conditions: bt20

Chain of PIK3CA (human) (P42336 whole entry, looked up): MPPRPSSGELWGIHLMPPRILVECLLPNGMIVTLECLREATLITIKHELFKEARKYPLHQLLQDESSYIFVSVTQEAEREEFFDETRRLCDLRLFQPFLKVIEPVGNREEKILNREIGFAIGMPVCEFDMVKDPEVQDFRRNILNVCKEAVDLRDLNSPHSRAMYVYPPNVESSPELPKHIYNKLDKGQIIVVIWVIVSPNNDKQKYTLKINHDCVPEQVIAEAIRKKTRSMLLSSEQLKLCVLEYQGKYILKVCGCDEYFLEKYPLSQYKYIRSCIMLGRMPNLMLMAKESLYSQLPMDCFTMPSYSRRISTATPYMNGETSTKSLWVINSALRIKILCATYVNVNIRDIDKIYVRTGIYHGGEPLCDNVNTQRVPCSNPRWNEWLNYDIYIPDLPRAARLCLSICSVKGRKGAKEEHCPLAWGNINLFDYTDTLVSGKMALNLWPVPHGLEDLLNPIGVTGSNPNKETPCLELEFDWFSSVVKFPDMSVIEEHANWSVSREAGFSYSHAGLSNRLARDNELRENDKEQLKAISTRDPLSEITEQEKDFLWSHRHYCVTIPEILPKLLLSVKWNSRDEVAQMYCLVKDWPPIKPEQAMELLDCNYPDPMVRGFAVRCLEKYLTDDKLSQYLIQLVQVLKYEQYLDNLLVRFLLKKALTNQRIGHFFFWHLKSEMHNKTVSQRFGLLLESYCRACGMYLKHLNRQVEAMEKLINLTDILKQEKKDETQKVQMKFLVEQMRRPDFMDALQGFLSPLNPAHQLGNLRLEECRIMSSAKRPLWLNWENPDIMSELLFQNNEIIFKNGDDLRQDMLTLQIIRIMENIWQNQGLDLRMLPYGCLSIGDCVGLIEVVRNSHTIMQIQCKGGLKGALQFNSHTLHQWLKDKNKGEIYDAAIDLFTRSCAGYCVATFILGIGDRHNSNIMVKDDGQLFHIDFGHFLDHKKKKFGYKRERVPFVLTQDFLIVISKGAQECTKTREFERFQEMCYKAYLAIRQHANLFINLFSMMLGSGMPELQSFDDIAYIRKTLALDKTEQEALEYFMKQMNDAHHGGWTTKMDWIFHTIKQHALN

Row | SMILES | IC50 [nM]
1 | COc1ccc(-c2ccc3ncc4[nH]c(=O)n([C@H]5CC[C@H](OCCO)CC5)c4c3n2)cn1 | 38.4
2 | CC(C)C(=O)N1CCC(n2c(=O)n(C)c3cnc4ccc(-c5cnc6ccccc6c5)nc4c32)CC1 | 29.4
3 | CN(C)c1ccc(-c2ccc3ncc4[nH]c(=O)n(-c5ccc(C(C)(C)C#N)cc5)c4c3n2)cn1 | 67.6
4 | CC(=O)N1CCC(n2c(=O)n(C)c3cnc4ccc(-c5ccc(S(C)(=O)=O)cc5)nc4c32)CC1 | 2580
5 | CCOC(=O)N1CCC(n2c(=O)n(C)c3cnc4ccc(-c5cnc6ccccc6c5)nc4c32)CC1 | 20.4
6 | Cc1ccc(-c2ccc3ncc4c(c3n2)n([C@H](C)CO)c(=O)n4C)cn1 | 269
7 | COc1ncc(-c2ccc3ncc4c(c3n2)n(C2CCN(C(=O)CN(C)C)CC2)c(=O)n4C)cn1 | 175
8 | CCNC(=O)N1CCC(n2c(=O)n(C)c3cnc4ccc(-c5cnc6ccccc6c5)nc4c32)CC1 | 17
9 | C[C@H](CO)n1c(=O)n(C)c2cnc3ccc(-c4cnc5[nH]ncc5c4)nc3c21 | 83.8
10 | CN(C)CC(=O)N1CCC(n2c(=O)n(C)c3cnc4ccc(-c5ccc(N(C)C)nc5)nc4c32)CC1 | 15.3
11 | CN[C@H]1CC[C@H](n2c(=O)n(C)c3cnc4ccc(-c5cnc6ccccc6c5)nc4c32)CC1 | 404
12 | Cn1c(=O)n(C2CCNCC2)c2c3nc(-c4cnn(CCO)c4)ccc3ncc21 | 3210
13 | Cn1cc(-c2ccc3ncc4[nH]c(=O)n(-c5ccc(C(C)(C)C#N)cc5)c4c3n2)cn1 | 97.3
14 | Cn1cc(-c2ccc3ncc4c(c3n2)n(C2CCN(CC(F)(F)F)CC2)c(=O)n4C)cn1 | 195
15 | COc1cccc(-c2ccc3ncc4c(c3n2)n(C2CCN(C(=O)[C@H](C)O)CC2)c(=O)n4C)c1 | 34.4
16 | Cn1c(=O)n([C@H]2CC[C@H](O)CC2)c2c3nc(-c4ccc5[nH]ncc5c4)ccc3ncc21 | 20.5
17 | Cn1c(=O)n(-c2ccc(C(C)(C)C#N)cc2)c2c3nc(-c4cnc5ccccc5c4)ccc3ncc21 | 3.54
18 | Cn1c(=O)n(C2CCN(C(=O)C(C)(C)N)CC2)c2c3nc(-c4cnc5ccccc5c4)ccc3ncc21 | 11.7
19 | N[C@H]1CC[C@H](n2c(=O)[nH]c3cnc4ccc(-c5cnc6ccccc6c5)nc4c32)CC1 | 402
20 | COc1ccc(-c2ccc3ncc4[nH]c(=O)n(-c5ccc(C(C)(C)C#N)cc5)c4c3n2)cn1 | 11.5
21 | CNC(=O)Nc1ccc(-c2ccc3ncc4c(c3n2)n(C2CCN(C(=O)[C@H](C)O)CC2)c(=O)n4C)cc1 | 81.5
22 | Cn1c(=O)n([C@H]2CC[C@H](O)CC2)c2c3nc(-c4cnn(CCO)c4)ccc3ncc21 | 448
23 | C[C@H](O)C(=O)N1CCC(n2c(=O)n(C)c3cnc4ccc(-c5ccnc6[nH]ncc56)nc4c32)CC1 | 218

Next, values leading:

Row | IC50 [nM] | SMILES
24 | 14 | COc1ccc(-c2ccc3ncc4c(c3n2)n(C2CCN(C(=O)[C@H](C)O)CC2)c(=O)n4C)cc1
25 | 18.2 | CN(C)c1ccc(-c2ccc3ncc4c(c3n2)n(C2CCN(CC(F)(F)F)CC2)c(=O)n4C)cn1
26 | 90.3 | COc1ncc(-c2ccc3ncc4c(c3n2)n(C2CCN(CC(N)=O)CC2)c(=O)n4C)cn1
27 | 24.6 | CN(C)c1ccc(-c2ccc3ncc4c(c3n2)n(C2CCNCC2)c(=O)n4C)cn1
28 | 112 | Cc1ccc(-c2ccc3ncc4c(c3n2)n(C2CCN(C(N)=O)CC2)c(=O)n4C)cn1
29 | 22.8 | Cc1ccc(-c2ccc3ncc4c(c3n2)n(C2CCN(C)CC2)c(=O)n4C)cn1
30 | 5.26 | CN(C)c1ccc(-c2ccc3ncc4c(c3n2)n([C@H]2CC[C@H](O)CC2)c(=O)n4C)cn1
31 | 4.59 | CC(=O)N1CCC(n2c(=O)n(C)c3cnc4ccc(-c5cnc6ccccc6c5)nc4c32)CC1
32 | 55.1 | COc1ccc(-c2ccc3ncc4c(c3n2)n(C2CCN(C(C)C)CC2)c(=O)n4C)cn1
33 | 32.5 | CN(C)c1ccc(-c2ccc3ncc4c(c3n2)n(C2CCN(CCO)CC2)c(=O)n4C)cn1
34 | 12.3 | COCC(=O)N1CCC(n2c(=O)n(C)c3cnc4ccc(-c5cnc(OC)nc5)nc4c32)CC1
35 | 309 | Cn1c(=O)n(C2CCOCC2)c2c3nc(-c4ccn[nH]4)ccc3ncc21
36 | 207 | COCCn1c(=O)n(C)c2cnc3ccc(-c4ccc(OC)nc4)nc3c21
37 | 137 | Cn1c(=O)n(C2CCNCC2)c2c3nc(-c4cnc(N)nc4)ccc3ncc21
38 | 21.4 | CN(C)c1ccc(-c2ccc3ncc4c(c3n2)n(C2CCN(C(=O)C(C)(C)C)CC2)c(=O)n4C)cn1
39 | 6.94 | Cn1c(=O)n(C2CCOCC2)c2c3nc(-c4cnc(N)nc4)ccc3ncc21
40 | 266 | COc1ccc(-c2ccc3ncc4c(c3n2)n([C@@H](C)CO)c(=O)n4C)cn1
41 | 18.5 | COc1ccc(-c2ccc3ncc4c(c3n2)n(C2CCOCC2)c(=O)n4C)cn1
